According to US10316080B2, “Protein-polymer-drug conjugates” (priority 2013, dated 2019):
pIC50: −log10 of the molar value.

Assays:
BT474 cells = assay: Cell viability assay (Cell Titer-Glo); type: cell-based; conditions: 72 h incubation
Procedure: (§1) PBRM-polymer-drug conjugates were evaluated for their antiproliferation properties in tumor cell lines in vitro using Cell Titer-Glo (Promega Corp). Cells were plated in black walled 96-well plate and allowed to adhere overnight at 37° C. in a humidified atmosphere of 5% CO2. SKBR3, BT474, NCI-N87 cells (HER2 expressing cells), MCF7 cells (HER2 low expressing levels cells) and JIMT1 cells (HER2 medium expression level cells) were plated at a density of 5,000 cells per well. The next day the medium was replaced with 50 μL fresh medium and 50 μL of 2× stocks of PBRM-polymer-drug conjugate, drug polymer conjugate or drug were added to appropriate wells, mixed and incubated for 72 h. Cell Titer-Glo reagent was added to the wells at room temperature and the luminescent signal was measured after 10 min using a SpectraMax M5 plate reader (Molecular Devices). Dose response curves were generated using SoftMax Pro software. IC50 values were determined from four-parameter curve fitting.

NCI-N87 cells = assay: Cell viability assay (Cell Titer-Glo); type: cell-based; conditions: 72 h incubation
Procedure: as §1

MCF7 cells = assay: Cell viability assay (Cell Titer-Glo); type: cell-based; conditions: 72 h incubation; HER2 low expressing cells
Procedure: as §1

JIMT1 cells = assay: Cell viability assay (Cell Titer-Glo); type: cell-based; conditions: 72 h incubation; HER2 medium expression
Procedure: as §1

HL-60 cells = assay: Cell viability assay (Cell Titer-Glo); type: cell-based; conditions: 72 h incubation; CD33 expressing cells
Procedure: Dose response curves were generated using SoftMax Pro software. IC50 values were determined from four-parameter curve fitting.
CD33 expressing cells HL-60 were passed at a density of 5,000 cells per well and treated with PBRM-polymer-drug conjugate on the same day. After 72 h incubation, the cells were analyzed using the same procedure described above.

A431 cells = assay: Cell viability assay (Cell Titer-Glo); type: cell-based; conditions: first of two experiments (first value in cell)
Procedure: as §1

LLC1 cells = assay: Cell viability assay (Cell Titer-Glo); type: cell-based; conditions: 5T4 negative control cells; second of two experiments
Procedure: as §1

[1] = Mouse tissue distribution after administration of PBRM-polymer-drug conjugates; type: in vivo, mice
Procedure: To determine the concentration of the free drug in the sample, the acidified sample was treated with acetonitrile. The free drug was extracted from the supernatant and analyzed by LC-MS/MS.
Female CB-17 SCID mice were inoculated subcutaneously with BT474 tumors (n=4 for each group).
At 48 hours post administration, the mice were sacrificed and the blood was collected by terminal cardiac.

SKBR3 cells = assay: Cell viability assay (Cell Titer-Glo); type: cell-based; conditions: 72 h incubation
Procedure: as §1

hErbB2 = hErbB2 (Homo sapiens, UniProt P04626); assay: Ligand binding by surface plasmon resonance (SPR); conditions: 25° C., immobilized hErbB2
Procedure: The kinetic binding of the PBRM-polymer-drug conjugate to an immobilized receptor was determined by BIAcore SPR.

With `CC[C@H](C)[C@@H]([C@@H](CC(=O)N1CCC[C@H]1[C@H](OC)[C@@H](C)C(=O)N[C@@H](Cc1ccccc1)C(=O)NCCCO)OC)N(C)C(=O)[C@@H](NC(=O)[C@H](C(C)C)N(C)C)C(C)C` [AF-HPA, auristatin F hydroxypropyl amide] as the compound, how does the pIC50 (BT474 cells) read?
Its pIC50 is 9.00.

What about the pIC50 (NCI-N87 cells) of the same compound?
Its pIC50 is 9.38.

What about the pIC50 (MCF7 cells) of the same compound?
The pIC50 was 8.36.

What about the pIC50 (JIMT1 cells) of the same compound?
The pIC50 was 9.07.

And the pIC50 (HL-60 cells)?
The pIC50 was 8.32.

And the pIC50 (A431 cells)?
Its pIC50 is 9.15.

What about the pIC50 (LLC1 cells) of the same compound?
The pIC50 was less than 7.00.

And the “Metabolism of released unconjugated AF-HPA in plasma” value ([1]; in plasma)?
The value was “not converted to AF”.

What about the “Metabolism of released unconjugated AF-HPA in tissue” value ([1]; in tissue) of the same compound?
The value was “further metabolized to AF”.

With ado-trastuzumab emtansine [Kadcyla ®] as the compound, how does the pIC50 (BT474 cells) read?
Its pIC50 is 8.62.

And the pIC50 (SKBR3 cells)?
The pIC50 was 9.64.

What about the pIC50 (NCI-N87 cells) of the same compound?
The pIC50 was 10.05.

And the pIC50 (MCF7 cells)?
The pIC50 was 7.41.

What about the pIC50 (JIMT1 cells) of the same compound?
The pIC50 was 7.74.

What about the “ka (association rate constant)” value (hErbB2) of the same compound?
The value was 4.61 ± 0.2 × 10^5 M^−1s^−1.

And the “kd (dissociation rate constant)” value (hErbB2)?
Its value is 3.17 ± 0.9 × 10^−5 s^−1.
